According to ChEMBL document CHEMBL1201862, “PubChem BioAssay data set” (2004):
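Cells were grown in 96-well plates and exposed to each compound for 48 hours at five concentrations; endpoints were interpolated linearly between bracketing concentrations, or set to the highest concentration if not reached. Abbreviation: GI50, concentration required for 50% inhibition of growth.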 Activity calls are given as the source filed them. Cut-off read from the data, not from the text of the source: active = GI50 up to about 1.1 µM and inactive = higher.

Tests used:
Assay in all cases: growth of human tumour cells (NCI), 48 h
786-0 = system: 786-0
A498 = system: A498
A549 = system: A549
ACHN = system: ACHN
CAKI-1 = system: CAKI-1
CCRF-CEM = system: CCRF-CEM
COLO 205 = system: COLO 205
DU-145 = system: DU-145
EKVX = system: EKVX
HCC 2998 = system: HCC 2998
HCT-116 = system: HCT-116
HCT-15 = system: HCT-15
HL-60 = system: HL-60
HOP-62 = system: HOP-62
HOP-92 = system: HOP-92
HT-29 = system: HT-29
Hs-578T = system: Hs-578T
IGROV-1 = system: IGROV-1
K562 = system: K562
KM12 = system: KM12
LOX IMVI = system: LOX IMVI
M14 = system: M14
MCF7 = system: MCF7
MDA-MB-231 = system: MDA-MB-231
MDA-MB-435 = system: MDA-MB-435
MDA-N = system: MDA-N
MOLT-4 = system: MOLT-4
Malme-3M = system: Malme-3M
NCI-H226 = system: NCI-H226
NCI-H23 = system: NCI-H23
NCI-H460 = system: NCI-H460
NCI-H522 = system: NCI-H522
NCI/ADR-RES = system: NCI/ADR-RES
OVCAR-3 = system: OVCAR-3
OVCAR-4 = system: OVCAR-4
OVCAR-5 = system: OVCAR-5
OVCAR-8 = system: OVCAR-8
PC-3 = system: PC-3
RPMI-8226 = system: RPMI-8226
RXF 393 = system: RXF 393
SF-268 = system: SF-268
SF-295 = system: SF-295
SF-539 = system: SF-539
SK-MEL-28 = system: SK-MEL-28
SK-MEL-2 = system: SK-MEL-2
SK-MEL-5 = system: SK-MEL-5
SK-OV-3 = system: SK-OV-3
SN12C = system: SN12C
SNB-19 = system: SNB-19
SNB-75 = system: SNB-75
SR = system: SR
SW-620 = system: SW-620
T47D = system: T47D
TK-10 = system: TK-10
U-251 = system: U-251
UACC-257 = system: UACC-257
UO-31 = system: UO-31
UACC-62 = system: UACC-62

OC1c2ccccc2CC12Cc1ccccc1C2 (stereo not drawn)
GI50 (786-0): > 100 µM (inactive)
GI50 (A498): > 100 µM (inactive)
GI50 (A549): 99.5 µM (inactive)
GI50 (ACHN): > 100 µM (inactive)
GI50 (CAKI-1): > 100 µM (inactive)
GI50 (CCRF-CEM): > 100 µM (inactive)
GI50 (COLO 205): 31.2 µM (inactive)
GI50 (DU-145): > 100 µM (inactive)
GI50 (EKVX): > 100 µM (inactive)
GI50 (HCC 2998): > 100 µM (inactive)
GI50 (HCT-116): 79.4 µM (inactive)
GI50 (HCT-15): > 100 µM
GI50 (HL-60): 74.1 µM (inactive)
GI50 (HOP-62): > 100 µM (inactive)
GI50 (HOP-92): 64 µM (inactive)
GI50 (HT-29): 86.7 µM (inactive)
GI50 (Hs-578T): > 100 µM (inactive)
GI50 (IGROV-1): > 100 µM (inactive)
GI50 (K562): 72.4 µM (inactive)
GI50 (KM12): > 100 µM (inactive)
GI50 (LOX IMVI): > 100 µM (inactive)
GI50 (M14): > 100 µM (inactive)
GI50 (MCF7): > 100 µM (inactive)
GI50 (MDA-MB-231): > 100 µM (inactive)
GI50 (MDA-MB-435): > 100 µM (inactive)
GI50 (MDA-N): > 100 µM (inactive)
GI50 (MOLT-4): 24.5 µM (inactive)
GI50 (Malme-3M): 92.9 µM (inactive)
GI50 (NCI-H226): 0.35 µM (active)
GI50 (NCI-H23): > 100 µM (inactive)
GI50 (NCI-H460): > 100 µM (inactive)
GI50 (NCI-H522): 62.5 µM (inactive)
GI50 (NCI/ADR-RES): 54.7 µM (inactive)
GI50 (OVCAR-3): 90.2 µM (inactive)
GI50 (OVCAR-4): > 100 µM (inactive)
GI50 (OVCAR-5): > 100 µM (inactive)
GI50 (OVCAR-8): > 100 µM (inactive)
GI50 (PC-3): > 100 µM (inactive)
GI50 (RPMI-8226): 48.2 µM (inactive)
GI50 (RXF 393): 48.3 µM (inactive)
GI50 (SF-268): > 100 µM (inactive)
GI50 (SF-295): > 100 µM (inactive)
GI50 (SF-539): > 100 µM (inactive)
GI50 (SK-MEL-28): > 100 µM (inactive)
GI50 (SK-MEL-2): > 100 µM (inactive)
GI50 (SK-MEL-5): 22.6 µM (inactive)
GI50 (SK-OV-3): > 100 µM (inactive)
GI50 (SN12C): 78.9 µM (inactive)
GI50 (SNB-19): > 100 µM (inactive)
GI50 (SNB-75): 61.4 µM (inactive)
GI50 (SR): 38.5 µM (inactive)
GI50 (SW-620): > 100 µM (inactive)
GI50 (T47D): > 100 µM (inactive)
GI50 (TK-10): > 100 µM (inactive)
GI50 (U-251): > 100 µM (inactive)
GI50 (UACC-257): 44.9 µM (inactive)
GI50 (UO-31): 94.2 µM (inactive)

O=C(O)c1cc2ccccc2c(/N=N/c2ccc(S(=O)(=O)Nc3nccs3)cc2)c1O
GI50 (786-0): > 100 µM (inactive)
GI50 (A549): > 100 µM (inactive)
GI50 (ACHN): > 100 µM (inactive)
GI50 (CAKI-1): > 100 µM (inactive)
GI50 (CCRF-CEM): > 100 µM (inactive)
GI50 (COLO 205): > 100 µM (inactive)
GI50 (DU-145): > 100 µM (inactive)
GI50 (EKVX): > 100 µM (inactive)
GI50 (HCC 2998): > 100 µM (inactive)
GI50 (HCT-116): > 100 µM (inactive)
GI50 (HCT-15): > 100 µM
GI50 (HL-60): > 100 µM (inactive)
GI50 (HOP-62): > 100 µM (inactive)
GI50 (HOP-92): > 100 µM (inactive)
GI50 (HT-29): > 100 µM (inactive)
GI50 (Hs-578T): > 100 µM (inactive)
GI50 (IGROV-1): > 100 µM (inactive)
GI50 (K562): > 100 µM (inactive)
GI50 (KM12): > 100 µM (inactive)
GI50 (M14): > 100 µM (inactive)
GI50 (MCF7): > 100 µM (inactive)
GI50 (MDA-MB-231): > 100 µM (inactive)
GI50 (MDA-MB-435): > 100 µM (inactive)
GI50 (MDA-N): > 100 µM (inactive)
GI50 (MOLT-4): > 100 µM (inactive)
GI50 (Malme-3M): > 100 µM (inactive)
GI50 (NCI-H226): > 100 µM (inactive)
GI50 (NCI-H23): > 100 µM (inactive)
GI50 (NCI-H460): > 100 µM (inactive)
GI50 (NCI-H522): > 100 µM (inactive)
GI50 (NCI/ADR-RES): > 100 µM (inactive)
GI50 (OVCAR-3): > 100 µM (inactive)
GI50 (OVCAR-4): > 100 µM (inactive)
GI50 (OVCAR-5): > 100 µM (inactive)
GI50 (OVCAR-8): > 100 µM (inactive)
GI50 (PC-3): > 100 µM (inactive)
GI50 (RPMI-8226): > 100 µM (inactive)
GI50 (RXF 393): > 100 µM (inactive)
GI50 (SF-268): > 100 µM (inactive)
GI50 (SF-295): > 100 µM (inactive)
GI50 (SF-539): > 100 µM (inactive)
GI50 (SK-MEL-28): > 100 µM (inactive)
GI50 (SK-MEL-2): > 100 µM (inactive)
GI50 (SK-MEL-5): > 100 µM (inactive)
GI50 (SK-OV-3): > 100 µM (inactive)
GI50 (SN12C): > 100 µM (inactive)
GI50 (SNB-75): > 100 µM (inactive)
GI50 (SR): > 100 µM (inactive)
GI50 (SW-620): > 100 µM (inactive)
GI50 (T47D): > 100 µM (inactive)
GI50 (TK-10): > 100 µM (inactive)
GI50 (U-251): > 100 µM (inactive)
GI50 (UACC-257): > 100 µM (inactive)
GI50 (UACC-62): > 100 µM (inactive)
GI50 (UO-31): > 100 µM (inactive)

C1=C(c2ccccc2)Nc2nnnn2C1c1ccccc1 (stereo not drawn)
GI50 (786-0): 47.2 µM (inactive)
GI50 (A498): 37.2 µM (inactive)
GI50 (A549): 44.5 µM (inactive)
GI50 (ACHN): 23.6 µM (inactive)
GI50 (CAKI-1): 47.6 µM (inactive)
GI50 (CCRF-CEM): 0.0125 µM (active)
GI50 (COLO 205): 48.6 µM (inactive)
GI50 (DU-145): 26.9 µM (inactive)
GI50 (HCT-116): 9.93 µM (inactive)
GI50 (HCT-15): 15.3 µM
GI50 (HL-60): 21.9 µM (inactive)
GI50 (HOP-62): 38.5 µM (inactive)
GI50 (HT-29): 17.4 µM (inactive)
GI50 (Hs-578T): 37.5 µM (inactive)
GI50 (IGROV-1): 83.4 µM (inactive)
GI50 (K562): 21.4 µM (inactive)
GI50 (KM12): 13.5 µM (inactive)
GI50 (LOX IMVI): 17.3 µM (inactive)
GI50 (M14): 23.9 µM (inactive)
GI50 (MCF7): 7.66 µM (inactive)
GI50 (MDA-MB-231): > 100 µM (inactive)
GI50 (MDA-MB-435): 11.1 µM (inactive)
GI50 (MDA-N): 20.1 µM (inactive)
GI50 (MOLT-4): 22 µM (inactive)
GI50 (NCI-H226): 47.4 µM (inactive)
GI50 (NCI-H23): > 100 µM (inactive)
GI50 (NCI-H460): 34 µM (inactive)
GI50 (NCI-H522): 23.1 µM (inactive)
GI50 (NCI/ADR-RES): 44 µM (inactive)
GI50 (OVCAR-3): > 100 µM (inactive)
GI50 (OVCAR-5): 93.3 µM (inactive)
GI50 (OVCAR-8): 34.9 µM (inactive)
GI50 (PC-3): 53.2 µM (inactive)
GI50 (RPMI-8226): < 0.01 µM (active)
GI50 (RXF 393): 16.7 µM (inactive)
GI50 (SF-268): 32.7 µM (inactive)
GI50 (SF-295): 28.6 µM (inactive)
GI50 (SF-539): 25.1 µM (inactive)
GI50 (SK-MEL-2): 27.5 µM (inactive)
GI50 (SK-MEL-5): 40.7 µM (inactive)
GI50 (SK-OV-3): 58.1 µM (inactive)
GI50 (SN12C): 71.3 µM (inactive)
GI50 (SNB-19): 49.4 µM (inactive)
GI50 (SR): 12.1 µM (inactive)
GI50 (SW-620): 22.1 µM (inactive)
GI50 (T47D): 47.1 µM (inactive)
GI50 (TK-10): 28.6 µM (inactive)
GI50 (U-251): 18.6 µM (inactive)
GI50 (UACC-257): 48.1 µM (inactive)
GI50 (UACC-62): 46.2 µM (inactive)
GI50 (UO-31): > 100 µM (inactive)
